This passage reports ΔTm and IC50 results from ChEMBL document CHEMBL6134801, “SMARCA2 protein: Structure, function and perspectives of drug design” (Eur J Med Chem, 2025).

T1 sequence (P51531 whole entry): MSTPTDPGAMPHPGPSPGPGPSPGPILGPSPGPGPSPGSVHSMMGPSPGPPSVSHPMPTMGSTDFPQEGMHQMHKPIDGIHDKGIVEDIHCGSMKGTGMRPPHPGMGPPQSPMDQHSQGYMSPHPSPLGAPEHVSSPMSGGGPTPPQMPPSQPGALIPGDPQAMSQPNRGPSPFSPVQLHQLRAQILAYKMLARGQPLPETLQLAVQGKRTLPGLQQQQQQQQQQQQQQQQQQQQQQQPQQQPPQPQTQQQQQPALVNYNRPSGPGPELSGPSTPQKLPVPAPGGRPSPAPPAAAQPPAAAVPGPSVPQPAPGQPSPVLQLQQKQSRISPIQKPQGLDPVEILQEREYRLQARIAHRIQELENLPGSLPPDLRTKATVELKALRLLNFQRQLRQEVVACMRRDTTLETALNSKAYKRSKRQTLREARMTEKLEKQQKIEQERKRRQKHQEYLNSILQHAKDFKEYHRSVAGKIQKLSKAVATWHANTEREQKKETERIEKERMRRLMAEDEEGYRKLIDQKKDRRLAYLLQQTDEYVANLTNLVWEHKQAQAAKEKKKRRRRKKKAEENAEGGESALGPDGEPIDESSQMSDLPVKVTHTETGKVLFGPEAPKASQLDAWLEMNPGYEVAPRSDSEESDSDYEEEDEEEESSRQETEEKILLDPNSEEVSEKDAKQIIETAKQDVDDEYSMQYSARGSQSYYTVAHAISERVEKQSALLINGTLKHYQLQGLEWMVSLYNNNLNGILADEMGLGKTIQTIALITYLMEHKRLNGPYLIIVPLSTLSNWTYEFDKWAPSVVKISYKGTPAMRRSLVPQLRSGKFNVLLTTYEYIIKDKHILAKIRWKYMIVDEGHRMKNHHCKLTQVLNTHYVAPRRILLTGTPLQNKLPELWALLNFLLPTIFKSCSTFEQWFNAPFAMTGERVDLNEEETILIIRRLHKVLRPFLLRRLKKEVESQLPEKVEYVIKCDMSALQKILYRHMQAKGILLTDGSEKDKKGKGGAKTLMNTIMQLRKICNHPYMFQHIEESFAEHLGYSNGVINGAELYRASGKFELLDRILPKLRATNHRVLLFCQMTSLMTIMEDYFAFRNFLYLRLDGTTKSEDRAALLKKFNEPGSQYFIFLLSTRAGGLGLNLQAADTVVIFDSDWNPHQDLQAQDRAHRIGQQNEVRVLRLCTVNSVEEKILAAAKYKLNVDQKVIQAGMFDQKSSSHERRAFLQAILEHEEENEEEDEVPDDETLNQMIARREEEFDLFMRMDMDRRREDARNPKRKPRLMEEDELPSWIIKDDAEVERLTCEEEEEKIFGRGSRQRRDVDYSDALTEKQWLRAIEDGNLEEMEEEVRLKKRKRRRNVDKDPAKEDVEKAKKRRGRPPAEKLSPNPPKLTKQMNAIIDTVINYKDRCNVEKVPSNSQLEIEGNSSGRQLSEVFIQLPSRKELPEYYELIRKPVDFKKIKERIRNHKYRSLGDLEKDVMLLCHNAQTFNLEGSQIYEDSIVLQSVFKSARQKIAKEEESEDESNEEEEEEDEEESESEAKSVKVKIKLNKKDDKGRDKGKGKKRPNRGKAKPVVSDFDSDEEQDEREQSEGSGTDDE

One test has as its target T1, SWI/SNF-related matrix-associated actin-dependent regulator of chromatin subfamily A member 2 (Homo sapiens, UniProt P51531). As to the kind of experiment: Induction of thermal stabilization of SMARCA2 (unknown origin) assessed as change in melting temperature by fluorescence based thermal shift assay.
Take `O=C(O)c1ccccc1O`: the ΔTm worked out at 1.3 °C.

Another test concerns the target T1, SWI/SNF-related matrix-associated actin-dependent regulator of chromatin subfamily A member 2. As to the kind of experiment: Inhibition of SMARCA2 (unknown origin).
`COc1cc(CNCc2ccccn2)ccc1OCc1cccs1` had an IC50 of 17 µM. On to `COc1cc(CNCc2ccccn2)ccc1OCc1cccc(Cl)c1`, for which the concentration for half-maximal inhibition (IC50) was determined as 9.2 µM. On the same count and under the same terms, as for `COc1cc(CNCc2ccccn2)cc(Cl)c1OCc1ccc(Cl)cc1Cl`, the figure is 9.1 µM; as for `COc1cc(CNCc2ccccn2)ccc1OCc1ccccc1F`, 9 µM; as for `COc1cc(CNCc2ccccn2)cc(Cl)c1OCc1ccc(Cl)cc1`, 30.2 µM.
